# In patent publication US20230103007A1, “COMBINATION THERAPY FOR TREATING ABNORMAL CELL GROWTH” (priority 2020, published 2023):
# Legend:
# [1] = tested on: H2122 KRAS G12C mt NSCLC xenograft; assay: Xenograft efficacy study, H2122; type: in vivo, Balb/c nude mice; conditions: for effect on AMG-510 efficacy (change in tumor volume): in combination with AMG-510, H2122 tumor bearing mice, 10 days; for mice with tumor regression, combination with sotorasib: in combination with sotorasib, 10 days of treatment; for augmentation of tumor growth inhibition by sotorasib: 0.3 mg/kg QD in combination with sotorasib 30 mg/kg QD
# Procedure: (§1) KRAS G12C mutant NSCLC H2122 and H358 tumor cells and Balb/c nude mice were used. Tumor challenge was initiated by subcutaneous inoculation of 1×10^7 tumor cell suspensions into the right flank of recipient mice. Tumor sizes (mm^3) and body weights were measured 3 times per week for the duration of the study. At the time of routine monitoring, the animals were checked for any effects of tumor growth and treatments on normal behavior such as mobility, food and water consumption (by looking only), and body weight gain/loss, eye/hair matting and any other abnormal effect.
# (§2) For efficacy studies, once tumors reached an average volume of 150-200 mm^3, mice were sorted into 10 groups (n=10): vehicle 1 (5% DMSO, 10% HPCD in sterile water)+vehicle 2 (2% HPMC, 1% Tween 80 in sterile water), VS-6766 in vehicle 1 (0.3 mg/kg PO QD, 28 days)+vehicle 2, AMG-510 in vehicle 2 (30 mg/kg PO QD, 28 days)+vehicle 1, VS-6766+AMG-510, VS-4718 (0.5% CMC-Na, 0.1% Tween 80 in sterile water) (50 mg/kg PO BID, 28 days)+vehicle 2, VS-4718+VS-6766, VS-4718+AMG-510, VS-4718+AMG-510+VS-6766, trametinib (0.3 mg/kg PO QD, 28 days) (0.5% hydroxypropylmethylcellulose and 0.2% Tween-80 in distilled water (pH 8.0))+vehicle 2, and trametinib+AMG-510. Mice were euthanized when tumor volumes>2,000 mm^3.
# [2] = tested on: H358 KRAS G12C mt NSCLC xenograft; assay: Xenograft efficacy study, H358; type: in vivo, Balb/c nude mice; conditions: in combination with G12Ci (AMG-510); 21 days
# Procedure: as §1, §2
# [3] = tested on: pMEK and pERK in H2122 KRAS G12C NSCLC xenograft tumors; assay: Pharmacodynamic study in H2122 xenograft tumors (pMEK, pERK western blot); type: in vivo, Balb/c nude mice; conditions: VS-6766 0.3 mg/kg + AMG-510 30 mg/kg, oral, daily for 5 days; tumors harvested 2, 8 and 24 hours after final dose
# Procedure: as §1
# [4] = tested on: KRAS G12C mt NSCLC and colorectal cancer cell lines (H2122, H358, H2030, H1373, SW837, SW1463); assay: 3D proliferation assay in vitro (CellTiter-Glo 3D, synergy analysis); type: cell-based; conditions: 7 days treatment, panel of KRAS G12C mt NSCLC and CRC cell lines, Loewe model
# Procedure: KRAS G12C mutant NSCLC (H2122, H358, H2030, H1373) and colorectal cancer (CRC; SW837 and SW1463) were used. Briefly, 96-well plates were coated with 50 μL of Matrigel (100%) and incubated at 37° C. and 5% CO2 for 30 min in order for the Matrigel to solidify. Cells were seeded in 100 μL of 2% Matrigel containing medium. After an incubate overnight (17-22 hours) cells were treated with VS-6766 +/−G12C inhibitor +/−Defactinib for 7 days. Cell viability was measured using the cell viability CellTiter-Glo 3D assay. Combination effects were evaluated by comparing the averaged viability/inhibition to two different null reference models derived from the single agent activities. Bliss, Loewe and Highest Single Agent synergy analysis were performed to determine synergy scores.
# [5] = tested on: RAS pathway signaling (pMEK, pERK, p-p90RSK); assay: Western blot of RAS pathway signaling in KRAS G12C mt NSCLC cell lines; type: cell-based
# Procedure: KRAS G12C mutant NSCLC cells (H2122, H358, H1373 and SW1573) were seeded in 10-cm dishes. After an incubate overnight (17-22hrs) cells were treated with 100 nM VS-6766 +/−100 nM G12C inhibitor. 4 and 48 hours post compound treatment, cells were collected, and cell lysates prepared using RIPA buffer containing protease inhibitors. Western blot assays were run using antibodies for pMEK, MEK, pERK, ERK, p-p90RSK, p90RSK and actin.
# [6] = 100 nM VS-6766 + 100 nM AMG-510, 4 and 48 hours
# [7] = 100 nM VS-6766 + 100 nM MRTX849, 4 and 48 hours
SMILES,effect on AMG-510 efficacy (change in tumor volume) [1],"mice with tumor regression, combination with sotorasib [1]",effect on efficacy of G12Ci in H358 xenograft model [2],augmentation of tumor growth inhibition by sotorasib [1],"mice with tumor reductions of >35%, triple combination ([1]; triple combination of VS-6766, sotorasib and a FAK inhibitor)","inhibition of pMEK and pERK in tumors, combination with sotorasib relative to sotorasib alone [3]","synergy in reducing viability, combination with adagrasib [4]","synergy in reducing viability, combination with sotorasib [4]","depth and duration of inhibition of MEK/ERK signaling, added to AMG-510, relative to G12C inhibitor alone [5, 6]","pERK inhibition by combination with AMG-510 versus AMG-510 alone [5, 6]","depth and duration of inhibition of MEK/ERK signaling, added to MRTX849, relative to G12C inhibitor alone [5, 7]","pERK inhibition by combination with MRTX849 versus MRTX849 alone [5, 7]","suppression of RAS pathway signaling (pMEK, pERK, p-p90RSK) as a single agent ([5]; single agent, 100 nM, 4 and 48 hours, KRAS-G12C NSCLC cell lines)"
CNC(=O)c1ccccc1Nc1cc(Nc2ccc(N3CCOCC3)cc2OC)ncc1C(F)(F)F [FAK inhibitor],potentiate,4/10,enhance,–,–,–,–,–,–,–,–,–,–
CNS(=O)(=O)Nc1nccc(Cc2c(C)c3ccc(Oc4ncccn4)cc3oc2=O)c1F [VS-6766],potentiate,5/10,enhance,augmented,10/10,improved inhibition,synergistic,synergistic,increases depth and duration of inhibition,better,increases depth and duration of inhibition,better,effectively suppressed
CNC(=O)c1ccc(Nc2ncc(C(F)(F)F)c(NCc3nccnc3N(C)S(C)(=O)=O)n2)cc1 [defactinib],–,–,–,–,–,–,synergistic,synergistic,–,–,–,–,–
"CC(=O)Nc1cccc(-n2c(=O)n(C3CC3)c(=O)c3c(Nc4ccc(I)cc4F)n(C)c(=O)c(C)c32)c1 [trametinib, reference compound]",–,1/10,–,much less effective,–,–,–,–,–,–,–,–,–
